One data set relates to WEHI-13VAR fibroblasts. It is filed as cell-based.
The next data set concerns GST-BRCT fusion protein. As to conditions: FA.
Data set [1] addresses bovine serum albumin (BSA) (Bos taurus, UniProt P02769). The experiment in a line: Fluorescence anisotropy specificity test, BSA. The class given is binding. (In general: Polarisation of emitted light reports the rotation of a fluorescent probe.)
For a further data set, the target named is HIV capsid protein (Human immunodeficiency virus type 1 group M subtype B, UniProt P04591). The experiment in a line: Fluorescence anisotropy specificity test, HIV capsid protein. The class given is binding. As to conditions: FA.
Data set [2] has as its target T1, protein phosphatase PTP1B (Homo sapiens, UniProt P18031).
T1 sequence (P18031 1-435): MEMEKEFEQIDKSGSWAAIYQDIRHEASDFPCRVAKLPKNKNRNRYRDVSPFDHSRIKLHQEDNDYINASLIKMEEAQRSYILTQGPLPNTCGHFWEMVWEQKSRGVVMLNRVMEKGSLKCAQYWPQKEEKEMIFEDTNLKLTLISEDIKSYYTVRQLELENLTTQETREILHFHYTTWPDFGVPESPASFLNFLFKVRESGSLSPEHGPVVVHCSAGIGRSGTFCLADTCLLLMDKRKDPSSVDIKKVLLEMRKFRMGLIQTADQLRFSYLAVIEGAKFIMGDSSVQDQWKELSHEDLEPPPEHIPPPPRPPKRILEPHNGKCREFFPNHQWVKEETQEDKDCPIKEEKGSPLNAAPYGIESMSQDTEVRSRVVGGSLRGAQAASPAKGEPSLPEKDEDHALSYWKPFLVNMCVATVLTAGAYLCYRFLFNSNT
The data set can be described thus: Fluorescence anisotropy specificity test, PTP1B. The class given is binding. The conditions noted are these: FA.

The target in data set [3] is glutathione-S-transferase-PLCγ SH2 domain fusion (GST-SH2). The experiment in a line: Fluorescence anisotropy specificity test, GST-SH2. As to conditions: FA, Fig. S4. It is filed as binding.
The target in a further data set is TNFα (Homo sapiens, UniProt P01375). The experiment in a line: Fluorescence anisotropy binding of resynthesized FITC-labeled peptides. The conditions noted are these: resynthesized FITC-labeled peptide, FA analysis, Fig. S3.

Experimental findings from paper PMC3856571 (Journal of the American Chemical Society, 2013) are described below.

Numbered stars: 1 amine (or outer) side, 2 acyl side, 3 side chain; on linkers, the order of the positions; unused ones are H or OH. Bridge positions count the residues as written; N and C are the ends. Square brackets hold non-standard residues; d marks the D form. Peptide text beside a SMILES is read from it. Trimesoyl = O=C(c1cc(C(=O)[*:2])cc(C(=O)[*:3])c1)[*:1]; Phg = N[C@H](C(=O)O)c1ccccc1; Nle = CCCC[C@H](N)C(=O)O; Dap = NC[C@H](N)C(=O)O

The term Kd denotes a measure of binding affinity in units of concentration.

Sequence of bovine serum albumin (BSA) (P02769 25-607): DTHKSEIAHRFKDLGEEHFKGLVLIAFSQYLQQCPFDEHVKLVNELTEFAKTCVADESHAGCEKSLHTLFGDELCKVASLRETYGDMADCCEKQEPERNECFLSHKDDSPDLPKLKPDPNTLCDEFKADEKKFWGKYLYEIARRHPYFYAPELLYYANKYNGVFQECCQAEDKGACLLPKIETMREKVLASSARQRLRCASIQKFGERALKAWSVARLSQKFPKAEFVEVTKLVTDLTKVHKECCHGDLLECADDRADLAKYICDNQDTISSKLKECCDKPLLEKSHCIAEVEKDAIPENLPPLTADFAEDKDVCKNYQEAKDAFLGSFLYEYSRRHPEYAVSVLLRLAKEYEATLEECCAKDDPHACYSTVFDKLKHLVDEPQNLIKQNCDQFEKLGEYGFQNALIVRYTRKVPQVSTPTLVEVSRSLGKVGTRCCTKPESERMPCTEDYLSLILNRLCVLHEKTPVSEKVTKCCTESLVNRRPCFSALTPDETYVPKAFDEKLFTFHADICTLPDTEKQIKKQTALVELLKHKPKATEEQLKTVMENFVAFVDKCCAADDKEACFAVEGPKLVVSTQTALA
Sequence of TNFα (P01375 77-233 limits assumed): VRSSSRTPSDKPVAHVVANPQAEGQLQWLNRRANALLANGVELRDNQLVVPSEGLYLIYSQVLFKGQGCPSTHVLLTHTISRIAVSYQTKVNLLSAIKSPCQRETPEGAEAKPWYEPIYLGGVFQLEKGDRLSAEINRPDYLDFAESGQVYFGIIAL

For TNFα, the “LD50 of TNFα in the absence of TNFα inhibitor” value in the data set with WEHI-13VAR fibroblasts (TNFα 0-250 ng/mL, MTT, Fig. S6) was found to be 0.46 ng/mL.

As to `C[C@H]1NC(=O)[C@H](Cc2ccc(O)cc2)NC(=O)[C@H](c2ccccc2)NC(=O)c2cc3cc(c2)C(=O)NC[C@@H](C(N)=O)NC(=O)[C@H](Cc2c[nH]cn2)NC(=O)[C@@H](CCCCN)NC(=O)CNC(=O)[C@@H](Cc2ccccc2)NC(=O)[C@H](Cc2ccc(O)cc2)NC(=O)[C@H](CCCCNC3=O)NC1=O` [Anticachexin C1, bicyclo(Phg-Tyr-D-Ala-Lys-Tyr-D-Phe-Gly-D-Lys-His-Dap)] ([Phg]Y[dA]KY[dF]G[dK]H[Dap]-NH2; linker N-4-10 via Trimesoyl; C-terminus assumed), the “binding to GST-BRCT fusion protein” value with GST-BRCT fusion protein was “not to any of the other proteins”. Moreover, in data set [1], the Kd is about 34 µM. In the data set on WEHI-13VAR fibroblasts (TNFα 0-250 ng/mL, fixed 50 μM Anticachexin C1, MTT, Fig. S6), the “LD50 of TNFα in the presence of 50 μM Anticachexin C1” value was 1.8 ng/mL. Further, the “protection of cells from TNFα-induced cell death” value with WEHI-13VAR fibroblasts (TNFα 0.04 ng/ml, actinomycin-D, peptide 0-25 μM, MTT, Fig. 4c) was “protected the cells from TNFα-induced cell death in a concentration-dependent manner”. The “binding to HIV capsid protein” value on HIV capsid protein is on record as “not to any of the other proteins”. The “binding to PTP1B” value in data set [2] was “not to any of the other proteins”. Also, the “KD for GST-SH2” value in data set [3] is “not to any of the other proteins”.

As to “Bicyclo(Arg-Arg-Arg-Arg-Nal-Phe-Dap-Ser-D-Val-Pro-pTyr-His-Dap)”, the “KD for TNFα” value at TNFα is reported as “no detectable binding”.

For the molecule `CCCC[C@@H]1NC(=O)[C@@H]2CCCCNC(=O)c3cc(cc(c3)C(=O)N[C@@H](C)C(=O)N[C@H](Cc3ccccc3)C(=O)N[C@@H](Cc3c[nH]c4ccccc34)C(=O)N[C@H]([C@H](C)O)C(=O)N[C@@H](CCC(N)=O)C(=O)N2)C(=O)NC[C@@H](C(N)=O)NC(=O)[C@H](Cc2c[nH]cn2)NC(=O)[C@H](C)NC(=O)[C@@H](CC(C)C)NC1=O` [Anticachexin C2, bicyclo(Ala-D-Phe-Trp-D-Thr-Gln-Lys-Nle-D-Leu-Ala-His-Dap)] (A[dF]W[dT]QK[Nle][dL]AH[Dap]-NH2; linker N-6-11 via Trimesoyl; C-terminus assumed), the Kd was determined as 7.4 µM in data set [1] and 1.5 µM in data set [3] (read-out: KD for GST-SH2).
